Measurements as given in patent US20240262826A1, “WILD TYPE KIT INHIBITORS” (Blueprint Medicines Corporation, priority 2022, published 2024).

Key:
[1] = test system: NIH3T3 parental cells; assay: Exon 9 assay, parental cells: cell viability (CellCounting Lite 2.0), 72 hours; assay type: cell-based; details: Mus musculus
Method: (§1) Exon 9 assay: The NIH3T3 cell lines that overexpressed the kit mutation exon 9 (or parental cells) were resuscitated and well cultured, and the cells were collected and seeded in 96-well plates at 3000/well, then the compounds were added to the 96 well plates in a gradient dilution, and the plates were incubated in an incubator for 72 hours.
(§2) After 72 hours of incubation, an equal volume of CellCounting
(§3) Lite 2.0 Luminescent Cell Viability reagent was added to the 96-well plates to detect the cell viability. The data were analyzed using GraphPad Prism 7.0 softwar e, and the nonlinear S-curve regression was used to fit the data to obtain the dose-effect curve, and the IC50 value was calculated accordingly.

[2] = test system: NIH3T3 cell lines that overexpressed the kit mutation exon 9; assay: Exon 9 assay: cell viability (CellCounting Lite 2.0), 72 hours; assay type: cell-based; details: Mus musculus, read-out: IC50 NIH3T3-cKit-AY502-3dup
Method: as §1, §2, §3

[3] = molecular target: Exon 11 KIT (Homo sapiens (Human), UniProt P10721, V560G); assay: Exon 11 HMC1.1 autophosphorylation assay (Phospho-Y719 c-KIT ELISA); assay type: cell-based; details: 90 minutes, read-out: IC50 HMC1.1 pKIT
Method: Exon 11 HMC1.1 autophosphorylation assay: 50,000 HMC1.1 cells were incubated in 50 ul culture media (phenol-red free IMDM, no iron, no serum) in each well of a 96-well plate and serum starved 4 hours in a tissue culture incubator (5% CO2, 37° C.). An 8-point dose concentration series of compound were then added to the cells in a volume of 7 ul to each well. After 90 minutes, 14 ul of 5× AlphaLISA Lysis Buffer (Perkin Elmer) supplemented with a protease and phosphatase inhibitor cocktail (Cell Signaling Technologies) was added to each well and shaken at […] for 5 minutes at 4° C. Phospho-Y719 c-KIT ELISA kit from Cell Signaling Technology was used to assess levels of phospho KIT.

[4] = molecular target: wild type c-kit (Homo sapiens (Human), UniProt P10721); assay: PathScan phospho c-kit (Tyr719) sandwich ELISA in SCF-stimulated M-07e cells (pKIT assay); assay type: cell-based; details: ELISA assay (values not marked *)
Procedure, shortened: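 Serum- and GM-CSF-starved M-07e cells (4 h) pretreated 60 min at 37 °C with an 8-point compound series in duplicate (0.25% DMSO), then stimulated with human SCF (500 ng/mL stock) 10 min at room temperature. Lysate c-kit Tyr719 phosphorylation quantified by sandwich ELISA with TMB read-out; IC50 from 4-parameter logistic fit.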

[5] = molecular target: human P-glycoprotein (P-gp, MDR1) (Homo sapiens (Human), UniProt P08183); assay: MDCK-MDR1 cell monolayer drug transport assay (P-gp efflux ratio); assay type: in vitro ADME; details: pH 7.4, MDCK-MDR1 cells, 1 uM concentration of compound, read-out: Pgp Efflux Ratio, 1 uM
Procedure, shortened: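 P-gp substrate potential tested in MDCK-MDR1 monolayers on Transwell supports, cultured 4-8 days; monolayers with TEER <42 ohms·cm2 discarded. Transport run in HBSS (10 mM HEPES, pH 7.4) at 37° C with compound working solution at 1 μM.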

Sequence of Exon 11 KIT (P10721 26-976 V560G): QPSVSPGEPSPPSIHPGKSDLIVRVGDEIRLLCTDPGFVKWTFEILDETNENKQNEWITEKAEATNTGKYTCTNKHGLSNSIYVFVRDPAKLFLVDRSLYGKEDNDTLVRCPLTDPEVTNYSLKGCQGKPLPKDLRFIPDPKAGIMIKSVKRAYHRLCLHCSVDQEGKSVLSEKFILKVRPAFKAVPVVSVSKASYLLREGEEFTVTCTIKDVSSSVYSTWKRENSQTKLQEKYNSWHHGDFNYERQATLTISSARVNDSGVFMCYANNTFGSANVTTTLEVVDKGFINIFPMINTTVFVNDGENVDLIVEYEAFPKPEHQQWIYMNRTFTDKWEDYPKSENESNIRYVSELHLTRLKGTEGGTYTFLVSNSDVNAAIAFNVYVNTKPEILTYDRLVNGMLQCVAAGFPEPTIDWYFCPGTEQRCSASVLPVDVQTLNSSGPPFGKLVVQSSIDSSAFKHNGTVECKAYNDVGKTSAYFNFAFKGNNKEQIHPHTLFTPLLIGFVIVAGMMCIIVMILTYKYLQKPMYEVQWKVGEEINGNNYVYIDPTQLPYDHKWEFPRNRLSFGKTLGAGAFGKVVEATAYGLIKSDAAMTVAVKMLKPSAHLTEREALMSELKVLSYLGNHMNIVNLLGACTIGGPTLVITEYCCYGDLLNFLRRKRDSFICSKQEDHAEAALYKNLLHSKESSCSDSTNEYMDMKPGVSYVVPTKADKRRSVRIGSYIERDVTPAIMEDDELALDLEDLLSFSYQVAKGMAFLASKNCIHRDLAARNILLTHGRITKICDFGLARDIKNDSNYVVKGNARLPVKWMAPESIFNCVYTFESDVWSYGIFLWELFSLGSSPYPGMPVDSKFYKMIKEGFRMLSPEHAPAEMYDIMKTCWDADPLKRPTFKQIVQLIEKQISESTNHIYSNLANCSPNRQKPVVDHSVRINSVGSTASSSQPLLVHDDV
Sequence of wild type c-kit (P10721 26-976): as the sequence (P10721 26-976 V560G) above, with G535V counted along it
Sequence of human P-glycoprotein (P-gp, MDR1) (P08183 whole entry): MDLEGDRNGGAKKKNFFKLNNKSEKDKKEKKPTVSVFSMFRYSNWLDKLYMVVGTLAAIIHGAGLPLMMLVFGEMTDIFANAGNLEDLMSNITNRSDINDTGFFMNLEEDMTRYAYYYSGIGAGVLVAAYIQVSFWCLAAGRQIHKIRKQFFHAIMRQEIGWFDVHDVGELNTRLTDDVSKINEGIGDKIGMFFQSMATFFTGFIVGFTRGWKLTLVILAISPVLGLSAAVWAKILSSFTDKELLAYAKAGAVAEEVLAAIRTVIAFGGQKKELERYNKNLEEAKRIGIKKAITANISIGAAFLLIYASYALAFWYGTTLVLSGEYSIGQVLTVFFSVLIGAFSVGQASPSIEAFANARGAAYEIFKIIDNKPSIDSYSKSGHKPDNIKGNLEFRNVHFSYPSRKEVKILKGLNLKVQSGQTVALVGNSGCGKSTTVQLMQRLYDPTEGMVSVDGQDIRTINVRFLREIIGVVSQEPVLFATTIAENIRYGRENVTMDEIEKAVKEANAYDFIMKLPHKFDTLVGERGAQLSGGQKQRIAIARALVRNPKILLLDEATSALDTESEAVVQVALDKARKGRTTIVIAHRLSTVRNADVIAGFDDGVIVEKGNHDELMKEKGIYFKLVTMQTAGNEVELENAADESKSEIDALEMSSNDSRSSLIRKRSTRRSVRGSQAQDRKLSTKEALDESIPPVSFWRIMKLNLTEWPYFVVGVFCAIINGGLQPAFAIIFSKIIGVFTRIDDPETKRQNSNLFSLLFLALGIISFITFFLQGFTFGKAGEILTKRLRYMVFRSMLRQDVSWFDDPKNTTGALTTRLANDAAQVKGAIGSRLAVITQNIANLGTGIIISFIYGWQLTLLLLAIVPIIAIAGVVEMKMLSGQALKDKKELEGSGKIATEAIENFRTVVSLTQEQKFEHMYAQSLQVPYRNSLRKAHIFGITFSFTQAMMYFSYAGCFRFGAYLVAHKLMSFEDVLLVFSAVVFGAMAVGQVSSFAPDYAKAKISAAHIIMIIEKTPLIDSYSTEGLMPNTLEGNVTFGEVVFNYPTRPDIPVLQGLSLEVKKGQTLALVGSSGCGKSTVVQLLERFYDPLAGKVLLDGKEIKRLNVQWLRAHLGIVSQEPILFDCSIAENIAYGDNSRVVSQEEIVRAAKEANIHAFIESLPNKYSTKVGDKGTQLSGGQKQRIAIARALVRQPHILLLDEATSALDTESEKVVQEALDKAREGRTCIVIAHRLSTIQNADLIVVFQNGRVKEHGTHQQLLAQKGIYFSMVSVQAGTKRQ

SMILES | IC50 [1] [nM] | IC50 [2] [nM] | IC50 [3] [nM] | IC50 [4] [nM] | efflux ratio at 2 h, 1 µM [5]
CCn1nnc(-c2ccc(Cl)c(NC(=O)c3cnn4ccc(-c5cn(C[C@H](O)COC)nc5C)cc34)c2)n1 [Example 284, (S)—N-(2-chloro-5-(2-ethyl-2H-tetrazol-5-yl)phenyl)-5-(1-(2-hydroxy-3-methoxypropyl)-3-methyl-1H-pyrazol-4-yl)pyrazolo[1,5-a]pyridine-3-carboxamide] | 161 | 7.5 | 0.2 | 0.2 | –
COC[C@@H](O)Cn1cc(-c2ccn3ncc(C(=O)Nc4cc(-c5nnn(C6CC6)n5)ccc4Cl)c3c2)c(C)n1 [Example 263, (S)-N-(2-chloro-5-(2-cyclopropyl-2H-tetrazol-5-yl)phenyl)-5-(1-(2-hydroxy-3-methoxypropyl)-3-methyl-1H-pyrazol-4-yl)pyrazolo[1,5-a]pyridine-3-carboxamide] | 123 | 2 | 0.2 | 0.2 | 3
